How the values were obtained:
[1] = Equol productivity of probiotic strains cultured in soybean germ extract (S30); details: inoculated into 30% isoflavone-containing soybean germ extract (S30), 37° C., 48 hours
Experimental: A probiotic strain having the ability to produce equol from a soybean germ extract (S30) containing 30 wt % of isoflavone was selected.
First, a soybean germ extract was prepared using 40 g/L of a soybean germ extract (S30, prepared by Seorim Bio) containing 30 wt % of isoflavone and sterile water. The pH of the soybean germ extract was adjusted to 6.7 using 5M NaOH. The entire soybean germ extract was sterilized by autoclaving at 121° C. for 15 minutes. Microorganisms were activated in rehydrated MRS (Mann Rogosa Sharpe) broth (De Mann et al. 1960) at 37° C. for 20 hours three times, followed by fourth activation in the sterile soybean germ extract at an inoculum level of 5% (v/v). 40 to 400 mL of the sterile soybean germ extract was inoculated with the active culture (5% v/v), and incubated at 37° C. for 24 hours to hydrolyze isoflavone glycosides. The strain activated in the soybean germ extract was used.
In addition, samples were taken at regular time intervals in a time-dependent manner and measured for β-glucosidase activity. […] The sequence of the above screening steps was determined flexibly. That is, strains producing equol were first screened, and then β-glucosidase activity was measured, or strains having high β-glucosidase activity were first screened, and then whether the strains produced equol was examined. […]

[2] = system: estrogen receptor (ER); details: background statement; cited from earlier work
[3] = molecular target: ERβ (Homo sapiens, UniProt Q92731); details: background statement; cited from earlier work
Chain of ERβ (Q92731 whole entry): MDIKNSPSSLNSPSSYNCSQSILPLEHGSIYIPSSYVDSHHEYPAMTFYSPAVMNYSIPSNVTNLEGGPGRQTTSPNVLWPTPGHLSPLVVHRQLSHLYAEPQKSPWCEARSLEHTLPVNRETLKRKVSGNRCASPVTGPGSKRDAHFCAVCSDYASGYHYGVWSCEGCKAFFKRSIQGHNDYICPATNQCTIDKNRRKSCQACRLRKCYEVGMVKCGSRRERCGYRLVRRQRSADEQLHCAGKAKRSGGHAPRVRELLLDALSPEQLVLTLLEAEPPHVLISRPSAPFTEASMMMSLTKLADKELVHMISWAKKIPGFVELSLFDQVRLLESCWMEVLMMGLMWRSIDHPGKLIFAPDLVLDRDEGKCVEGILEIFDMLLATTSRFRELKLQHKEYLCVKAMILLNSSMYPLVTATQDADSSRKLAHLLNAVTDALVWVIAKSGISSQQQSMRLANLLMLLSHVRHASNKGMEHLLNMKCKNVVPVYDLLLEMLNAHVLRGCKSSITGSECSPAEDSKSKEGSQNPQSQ

Q: With Bifidobacterium longum as the molecule, how does the “equol production / equol productivity in culture supernatant” value [1] read?
A: equol was produced

Q: With `O=c1c(-c2ccc(O)cc2)coc2cc(O)ccc12` [daidzein] as the molecule, how does the ER binding affinity [2] read?
A: exhibits estrogen receptor (ER) binding affinity

Q: Which “affinity for ERβ” value [3] does the source give for `Oc1ccc([C@H]2COc3cc(O)ccc3C2)cc1` [Equol] here?
A: high affinity for ERβ

Q: What about the ER binding affinity [2] of the same molecule?
A: higher ER binding affinity than daidzein

From patent US11805799B2, “Composition for preventing, relieving or treating climacteric disorders comprising lactic acid bacteria and prebiotics” (CELL BIOTECH CO., LTD., priority 2019, dated 2023)
